Data from publication PMC11845477, “Exploring the principles behind antibiotics with limited resistance” (Nature Communications, 2025).

How the values were obtained:
[1] = test system: E. coli ATCC 25922 (SEN) and E. coli NCTC13846 (MDR); test: Frequency-of-resistance (FoR) assay, relative MIC of mutants; assay type: cell-based, Escherichia coli
How it was run: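 First-step resistance is selected by exposing roughly 10^10 cells to each antibiotic on agar for 48 h at 37 °C. Ten colonies from the highest selective concentration then undergo MIC testing by OD600 in MHB, reported relative to the ancestral strain.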

[2] = test system: A. baumannii ATCC 17978 (SEN) and A. baumannii ATCC BAA-1605 (MDR); test: Adaptive laboratory evolution (ALE), relative MIC of evolved lines; assay type: cell-based, Acinetobacter baumannii
How it was run: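 Ten parallel populations per antibiotic–ancestor pair were evolved in MHB at 37 °C, starting near 50% growth-inhibiting drug. Every 72 h they were passaged into 0.5–2.5× increasing concentrations, keeping the highest-drug well with OD600 > 0.2.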

[3] = E. coli NCTC 13846 (EC-MDR), evolved line 1
[4] = E. coli NCTC 13846 (EC-MDR), evolved line 2
[5] = E. coli NCTC 13846 (EC-MDR), evolved line 3
[6] = AB-SEN (A. baumannii ATCC 17978), evolved line 1 of the given antibiotic
[7] = AB-SEN (A. baumannii ATCC 17978), evolved line 2 of the given antibiotic
[8] = AB-SEN (A. baumannii ATCC 17978), evolved line 3 of the given antibiotic
[9] = AB-SEN (A. baumannii ATCC 17978), evolved line 4 of the given antibiotic
[10] = AB-SEN (A. baumannii ATCC 17978), evolved line 5 of the given antibiotic
[11] = AB-SEN (A. baumannii ATCC 17978), evolved line 6 of the given antibiotic
[12] = AB-SEN (A. baumannii ATCC 17978), evolved line 8 of the given antibiotic
[13] = AB-SEN (A. baumannii ATCC 17978), evolved line 9 of the given antibiotic

C[C@@H](O)[C@H]1C(=O)N2C(C(=O)O)=C(S[C@H]3CC[S@@+]([O-])C3)S[C@H]12 [Sulopenem]
1.204 log10: Relative MIC (log10) ([2]; AB-SEN (Acinetobacter baumannii ATCC 17978), evolved line 3) | Relative MIC (log10) ([2]; AB-SEN (Acinetobacter baumannii ATCC 17978), evolved line 9) | Relative MIC (log10) ([2]; AB-SEN, Acinetobacter baumannii ATCC 17978, evolved line 7)
1.806 log10: Relative MIC (log10) ([2]; AB-SEN (Acinetobacter baumannii ATCC 17978), evolved line 5)
0.0156 µg/mL: MIC of evolved line ([1]; Escherichia coli ATCC 25922 (EC-SEN), evolved line 1) | MIC of evolved line ([1]; Escherichia coli ATCC 25922 (EC-SEN), evolved line 2) | MIC of evolved line ([1]; Escherichia coli ATCC 25922 (EC-SEN), evolved line 3)
8 µg/mL: MIC of evolved line [2, 6] | MIC of evolved line [2, 12]
0.9031 log10: Relative MIC (log10) ([2]; AB-SEN (Acinetobacter baumannii ATCC 17978), evolved line 1)
8: Relative MIC ([2]; AB-SEN (A. baumannii ATCC 17978), evolved line 1 vs ancestor) | Relative MIC ([2]; AB-SEN (A. baumannii ATCC 17978), evolved line 8 vs ancestor) | Relative MIC ([2]; Acinetobacter baumannii ATCC 17978 (AB-SEN), evolved line 1) | Relative MIC ([2]; Acinetobacter baumannii ATCC 17978 (AB-SEN), evolved line 8)
16: Relative MIC ([2]; AB-SEN (A. baumannii ATCC 17978), evolved line 3 vs ancestor) | Relative MIC ([2]; AB-SEN (A. baumannii ATCC 17978), evolved line 4 vs ancestor) | Relative MIC ([2]; AB-SEN (A. baumannii ATCC 17978), evolved line 6 vs ancestor) | Relative MIC ([2]; AB-SEN (A. baumannii ATCC 17978), evolved line 7 vs ancestor) | Relative MIC ([2]; AB-SEN (A. baumannii ATCC 17978), evolved line 9 vs ancestor) | Relative MIC ([2]; Acinetobacter baumannii ATCC 17978 (AB-SEN), evolved line 3) | Relative MIC ([2]; Acinetobacter baumannii ATCC 17978 (AB-SEN), evolved line 4) | Relative MIC ([2]; Acinetobacter baumannii ATCC 17978 (AB-SEN), evolved line 6) | Relative MIC ([2]; Acinetobacter baumannii ATCC 17978 (AB-SEN), evolved line 7) | Relative MIC ([2]; Acinetobacter baumannii ATCC 17978 (AB-SEN), evolved line 9)
1 µg/mL: MIC of evolved line [2, 7]
0.0312 µg/mL: MIC of evolved line [1, 4] | MIC of evolved line [1, 5]
64: Relative MIC ([2]; AB-SEN (A. baumannii ATCC 17978), evolved line 5 vs ancestor) | Relative MIC ([2]; Acinetobacter baumannii ATCC 17978 (AB-SEN), evolved line 5)
64 µg/mL: MIC of evolved line [2, 10]
2: Relative MIC ([1]; E. coli NCTC 13846 (EC-MDR), evolved line 1, evolved vs ancestor)
0.0625 µg/mL: MIC of evolved line [1, 3]
1: Relative MIC ([1]; E. coli NCTC 13846 (EC-MDR), evolved line 2, evolved vs ancestor) | Relative MIC ([1]; E. coli NCTC 13846 (EC-MDR), evolved line 3, evolved vs ancestor) | Relative MIC ([1]; Escherichia coli ATCC 25922 (EC-SEN), evolved line 1 versus ancestor) | Relative MIC ([1]; Escherichia coli ATCC 25922 (EC-SEN), evolved line 2 versus ancestor) | Relative MIC ([1]; Escherichia coli ATCC 25922 (EC-SEN), evolved line 3 versus ancestor) | Relative MIC ([2]; AB-SEN (A. baumannii ATCC 17978), evolved line 2 vs ancestor) | Relative MIC ([2]; Acinetobacter baumannii ATCC 17978 (AB-SEN), evolved line 2)
16 µg/mL: MIC of evolved line [2, 8] | MIC of evolved line [2, 9] | MIC of evolved line [2, 11] | MIC of evolved line ([2]; AB-SEN (A. baumannii ATCC 17978), evolved line 7 of the given antibiotic) | MIC of evolved line [2, 13]

polymyxin-B
4 µg/mL: MIC of evolved line ([1]; E. coli ATCC 25922 (EC-SEN), evolved line 1) | MIC of evolved line [1, 3] | MIC of evolved line [1, 4] | MIC of evolved line [1, 5]
1020 µg/mL: MIC of evolved line ([2]; AB-MDR ATCC BAA 1605, evolved line 4) | MIC of evolved line ([2]; AB-MDR ATCC BAA 1605, evolved line 5) | MIC of evolved line ([2]; AB-MDR ATCC BAA 1605, evolved line 6) | MIC of evolved line ([2]; AB-MDR ATCC BAA 1605, evolved line 7) | MIC of evolved line ([2]; AB-MDR ATCC BAA 1605, evolved line 8) | MIC of evolved line ([2]; AB-MDR ATCC BAA 1605, evolved line 9) | MIC of evolved line ([2]; AB-MDR ATCC BAA 1605, evolved line 10)
512 µg/mL: MIC of evolved line ([2]; AB-MDR ATCC BAA 1605, evolved line 1) | MIC of evolved line ([2]; AB-MDR ATCC BAA 1605, evolved line 2) | MIC of evolved line [2, 6] | MIC of evolved line [2, 7] | MIC of evolved line [2, 9] | MIC of evolved line [2, 10] | MIC of evolved line [2, 11]
1 µg/mL: MIC of evolved line ([1]; E. coli ATCC 25922 (EC-SEN), evolved line 2)
256 µg/mL: MIC of evolved line ([2]; AB-MDR ATCC BAA 1605, evolved line 3) | MIC of evolved line [2, 8] | MIC of evolved line [2, 12] | MIC of evolved line [2, 13]
8 µg/mL: MIC of evolved line ([1]; E. coli ATCC 25922 (EC-SEN), evolved line 3)
